Publication PMC7998669, “7-(2-Anilinopyrimidin-4-yl)-1-benzazepin-2-ones Designed by a “Cut and Glue” Strategy Are Dual Aurora A/VEGF-R Kinase Inhibitors” (Molecules, 2021)

Experiments:
Test in all cases: NCI cancer cell line screen (sulforhodamin B)
Format in all cases: cell-based
A549/ATCC = conditions: Homo sapiens, NSCL, 48 h, read-out: log10 GI50 (converted)
Protocol: (§1) The new dual Aurora A/VEGF-R inhibitors 2e and 2n were selected by the National Cancer Institute for screening in its broad cancer cell line panel. The NCI in vitro assay is performed by incubation of cells with test compounds for 48 h and subsequent cell fixation with trichloroacetic acid. The pink dye sulforhodamin B is added, which binds to the proteins of the fixed cells. After washing and solubilizing the bound stain, the optical density is measured spectrophotometrically to determine the relative proliferation of treated and untreated cells.
(§2) Simultaneous inhibition of the Aurora A kinase and the VEGF-R2/3 receptor kinases may represent an interesting dual activity for the treatment of cancer. The National Cancer Institute selected the compounds 2e and 2n as representatives with particularly high inhibitory activity on the above kinases for testing in the IVCLS (in vitro cell line screening). In this screening, compounds are tested for antiproliferative activity on about 60 in vitro cultivated tumor cell lines. Based on this very broad screening on cell lines from nine tumor entities the general antiproliferative potency of compounds is determined. In addition, the bioinformatic tool COMPARE allowed one to draw conclusions on the molecular target of the compounds from the activity patterns on the different cell lines. Similar molecular mechanisms of action of two compounds are assumed if a Pearson correlation coefficient (PCC) of > 0.6 is calculated by COMPARE [52, 53]. […] The selectivity profile of the two compounds is not very pronounced given the overall very similar proliferation inhibition values across all cell lines. A COMPARE analysis determined a PCC = 0.61 for the patterns of test compounds 2e and 2n, which is consistent with an analogous mechanism of action. However, whether this mechanism is actually based on the inhibition of the inhibited Aurora kinases and VEGF receptor kinases cannot be deduced from these profiles.

DU-145 = conditions: Homo sapiens; DU-145, Prostate; 48 h; read-out: log10 GI50 (converted)
Protocol: as §1, §2

HCC-2998 = conditions: Homo sapiens; HCC-2998, Colon; 48 h; read-out: log10 GI50 (converted)
Protocol: as §1, §2

HCT-15 = conditions: Homo sapiens; HCT-15, Colon; 48 h; read-out: log10 GI50 (converted)
Protocol: as §1, §2

HOP-62 = conditions: Homo sapiens; HOP-62, NSCL; 48 h; read-out: log10 GI50 (converted)
Protocol: as §1, §2

HOP-92 = conditions: Homo sapiens; HOP-92, NSCL; 48 h; read-out: log10 GI50 (converted)
Protocol: as §1, §2

HT29 = conditions: Homo sapiens, HT-29; HT29, Colon; 48 h; read-out: log10 GI50 (converted)
Protocol: as §1, §2

M14 = conditions: Homo sapiens; M14, Melanoma; 48 h; read-out: log10 GI50 (converted)
Protocol: as §1, §2

MALME-3M = conditions: Homo sapiens, Melanoma, 48 h, read-out: log10 GI50 (converted)
Protocol: as §1, §2

MCF7 = conditions: Homo sapiens; MCF7, Breast; 48 h; read-out: log10 GI50 (converted)
Protocol: as §1, §2

NCI-H226 = conditions: Homo sapiens; NCI-H226, NSCL; 48 h; read-out: log10 GI50 (converted)
Protocol: as §1, §2

NCI-H322M = conditions: Homo sapiens, NSCL, 48 h, read-out: log10 GI50 (converted)
Protocol: as §1, §2

NCI-H522 = conditions: Homo sapiens; NCI-H522, NSCL; 48 h; read-out: log10 GI50 (converted)
Protocol: as §1, §2

NCI/ADR-RES = conditions: Homo sapiens, Ovarian, 48 h, read-out: log10 GI50 (converted)
Protocol: as §1, §2

OVCAR-3 = conditions: Homo sapiens; OVCAR-3, Ovarian; 48 h; read-out: log10 GI50 (converted)
Protocol: as §1, §2

OVCAR-4 = conditions: Homo sapiens; OVCAR-4, Ovarian; 48 h; read-out: log10 GI50 (converted)
Protocol: as §1, §2

OVCAR-5 = conditions: Homo sapiens; OVCAR-5, Ovarian; 48 h; read-out: log10 GI50 (converted)
Protocol: as §1, §2

OVCAR-8 = conditions: Homo sapiens; OVCAR-8, Ovarian; 48 h; read-out: log10 GI50 (converted)
Protocol: as §1, §2

PC-3 = conditions: Homo sapiens; PC-3, Prostate; 48 h; read-out: log10 GI50 (converted)
Protocol: as §1, §2

RPMl-8226 = conditions: Homo sapiens; RPMl-8226, Leukemia; 48 h; read-out: log10 GI50 (converted)
Protocol: as §1, §2

SF-539 = conditions: Homo sapiens; SF-539, CNS; 48 h; read-out: log10 GI50 (converted)
Protocol: as §1, §2

SK-MEL-28 = conditions: Homo sapiens; SK-MEL-28, Melanoma; 48 h; read-out: log10 GI50 (converted)
Protocol: as §1, §2

SR = conditions: Homo sapiens, Leukemia, 48 h, read-out: log10 GI50 (converted)
Protocol: as §1, §2

SW-620 = conditions: Homo sapiens; SW-620, Colon; 48 h; read-out: log10 GI50 (converted)
Protocol: as §1, §2

U0-31 = conditions: Homo sapiens; U0-31, Renal; 48 h; read-out: log10 GI50 (converted)
Protocol: as §1, §2

UACC-257 = conditions: Homo sapiens; UACC-257, Melanoma; 48 h; read-out: log10 GI50 (converted)
Protocol: as §1, §2

UACC-62 = conditions: Homo sapiens; UACC-62, Melanoma; 48 h; read-out: log10 GI50 (converted)
Protocol: as §1, §2

Structure (SMILES) | GI50 (A549/ATCC) | GI50 (DU-145) | GI50 (HCC-2998) | GI50 (HCT-15) | GI50 (HOP-62) | GI50 (HOP-92) | GI50 (HT29) | GI50 (M14) | GI50 (MALME-3M) | GI50 (MCF7) | GI50 (NCI-H226) | GI50 (NCI-H322M) | GI50 (NCI-H522) | GI50 (NCI/ADR-RES) | GI50 (OVCAR-3) | GI50 (OVCAR-4) | GI50 (OVCAR-5) | GI50 (OVCAR-8) | GI50 (PC-3) | GI50 (RPMl-8226) | other results
O=C1CCCc2cc(-c3ccnc(Nc4ccc(O)cc4)n3)ccc2N1 [Compound 2e, 7-[2-(4-Hydroxyanilino)pyrimidin-4-yl]-1,3,4,5-tetrahydro-2H-1-benzazepin-2-one] | 4.47 µM | 3.39 µM | 8.71 µM | 3.24 µM | 11 µM | 6.61 µM | 5.13 µM | 4.07 µM | 2.19 µM | 4.27 µM | 29.5 µM | 4.07 µM | 4.47 µM | > 100 µM | 5.89 µM | 5.62 µM | 6.46 µM | 4.07 µM | 4.9 µM | 3.24 µM | GI50 (SF-539): 4.17 µM; GI50 (SK-MEL-28): 5.75 µM; GI50 (SR): 1.32 µM; GI50 (SW-620): 4.79 µM; GI50 (U0-31): 1.74 µM; GI50 (UACC-257): 4.17 µM; GI50 (UACC-62): 9.12 µM
COc1ccc(Nc2nccc(-c3ccc4c(c3)CCCC(=O)N4)n2)cc1O [Compound 2n, 7-[2-(3-Hydroxy-4-methoxyanilino)pyrimidin-4-yl]-1,3,4,5-tetrahydro-2H-1-benzazepin-2-one] | 7.94 µM | 5.01 µM | 22.9 µM | 4.57 µM | 8.13 µM | 0.214 µM | 13.2 µM | 4.37 µM | > 100 µM | 5.13 µM | 9.12 µM | 30.9 µM | 10 µM | 14.1 µM | 10 µM | 7.59 µM | 8.71 µM | 9.77 µM | 12.6 µM | 5.25 µM | GI50 (SF-539): 4.47 µM; GI50 (SK-MEL-28): 9.12 µM; GI50 (SR): 3.16 µM; GI50 (SW-620): 4.47 µM; GI50 (U0-31): 3.02 µM; GI50 (UACC-257): 14.8 µM; GI50 (UACC-62): 9.33 µM
